Experimental data published in patent publication US11369565B2, “Amino-pyrimidine skeletal muscle modulators” (Cytokinetics, Inc., priority 2010, dated 2022).

Each molecule was assayed on rabbit skeletal myofibrils (approximately 90% fast fibers) (assay: Activation of fast skeletal myofibrils (PUMA coupled-enzyme ATPase assay at pCa25)). Details: concentration at which the compound increased the enzymatic activity by 40%; calcium at pCa25; PM12 buffer pH 6.8.
Format: biochemical
In short: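 Detergent-washed rabbit psoas myofibrils tested at calcium giving 25% of maximal rate (pCa25). ATPase activity tracked by pyruvate kinase/lactate dehydrogenase coupling, NADH oxidation read as absorbance at 340 nm, in PM12 buffer (12 mM Pipes, 2 mM MgCl2, 1 mM DTT, pH 6.8).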

Mean AC1.4 | Compound
D (D=>20 uM) | COc1ccc(-c2cnc(NC[C@]3(c4ncccc4F)C[C@H](F)C3)nc2)cn1 [{[3-fluoro-1-(3-fluoro(2-pyridyl))cyclobutyl]methyl} [5-(6-methoxy(3-pyridyl))pyrimidin-2-yl]amine]
C (C=10-20 uM) | CC(C)(Nc1ncc(-c2cc(C(N)=O)n[nH]2)cn1)c1ncccc1Cl [5-(2-{[1-(3-chloro(2-pyridyl))-isopropyl]amino}pyrimidin-5-yl)pyrazole-3-carboxamide]
D (D=>20 uM) | CC(C)(C)NC(=O)c1cc(-c2cnc(NC(C)(C)c3ncccc3Cl)nc2)cnn1 [N-(tert-butyl)[5-(2-{[1-(3-chloro(2-pyridyl))-isapropyl]amino}pyrimidin-5-yl)pyridazin-3-yl]carboxamide]
D (D=>20 uM) | O=C(O)c1ccc(=O)n(-c2cnc(NC[C@]3(c4ncccc4F)C[C@H](F)C3)nc2)c1 [1-[2-({[3-fluoro-1-(3-fluoro(2-pyridyl))cyclobutyl]methyl}amino)pyrimidin-5-yl]-6-oxohydropyridine-3-carboxylic acid]
C (C=10-20 uM) | CC(C)(CNc1ncc(-c2nccc(C(N)=O)n2)cn1)c1ncccc1F [2-(2-{[2-(3-fluoro(2-pyridyl))-2-methylpropyl]amino)pyrimidin-5-yl)pyrimidine-4-carboxamide]
B (B=1-10 uM) | Cc1nc(NC[C@]2(c3ncccc3F)C[C@H](F)C2)ncc1-c1ccc(CC(N)=O)cc1 [2-{4-[2-({[3-fluoro-1-(3-fluoro(2-pyridyl))cyclobutyl]methyl}amino)-4-methylpyrimidin-5-yl]phenyl}acetamide]
B (B=1-10 uM) | Nc1ncc(-c2cnc(NC[C@]3(c4ncccc4F)C[C@H](F)C3)nc2)cn1 [[5-(2-aminopyrimidin-5-yl)]pyrimidin-2-yl]{[3-fluoro-1-(3-fluoro(2-pyridyl))cyclobutyl]methyl}amine]
B (B=1-10 uM) | CC(C)(Nc1ncc(-c2cc(C(N)=O)no2)cn1)c1ncccc1Cl [5-(2-{[1-(3-chloro(2-pyridyl))-isopropyl]amino}pyrimidin-5-yl)isoxazole-3-carboxamide]
D (D=>20 uM) | CNC(=O)c1cnc(NCC2(c3ncccc3F)CCC2)nc1 [[2-({[(3-fluoro(2-pyridyl))cyclobutyl]methyl}amino)pyrimidin-5-yl]-N-methylcarboxamide]
D (D=>20 uM) | NC(=O)c1ccc2nc(NC3(c4ncccc4F)CCC3)ncc2c1 [2-{[(3-fluoro-2-pyridyl)cyclobutyl]amino} quinazoline-6-carboxamide]
B (B=1-10 uM) | CNC(=O)c1cccc(-c2cnc(NC[C@]3(c4ncccc4F)C[C@H](F)C3)nc2)c1O [{3-[2-({[3-fluoro-1-(3-fluoro(2-pyridyl))cyclobutyl]methyl}amino)pyrimidin-5-yl]-2-hydroxyphenyl}-N-methylcarboxamide]
B (B=1-10 uM) | CC(=O)NCc1cnc(-c2cnc(NCC3(c4ncccc4F)CCC3)nc2)s1 [N-({2-[2-({[(3-fluoro-2-pyridyl)cyclobutyl]methyl}amino)pyrimidin-5-yl]-1,3-thiazol-5-yl}methyl)acetamide]
B (B=1-10 uM) | COc1nc(NC[C@]2(c3ncccc3F)C[C@@H](F)C2)ncc1-c1ccccc1 [{[3-fluoro-1-(3-fluoro(2-pyridyl))cyclobutyl]methyl)(4-methoxy-5-phenylpyrimidin-2-yl)amine]
B (B=1-10 uM) | CC(C)(Nc1ncc(-c2cccc(C(N)=O)c2)cn1)c1ncccc1F [3-(2-{[1-(3-fluoro(2-pyridyl))-isopropyl]amino}pyrimidin-5-yl)benzamide]
A (A=<1 uM) | NC(=O)c1ccc(F)c(-c2cnc(N[C@]3(c4ncccc4Cl)C[C@H](F)C3)nc2)c1 [3-(2-{[1-(3-chloro(2-pyridyl))-3-fluorocyclobutyl]amino}pyrimidin-5-yl)-4-fluorobenzamide]
C (C=10-20 uM) | CC(C)(Nc1ncc(-c2cccc(C(N)=O)n2)cn1)c1ncccc1Cl [6-(2-{[1-(3-chloro(2-pyridyl))-isopropyl]amino}pyrimidin-5-yl)pyridine-2-carboxamide]
B (B=1-10 uM) | Nc1cncc(-c2cnc(NC[C@]3(c4ncccc4F)C[C@H](F)C3)nc2)n1 [[5-(6-aminopyrazin-2-yl)pyrimidin-2-yl]{[3-fluoro-1-(3-fluoro(2-pyridyl))cyclobutyl]methyl}amine]
B (B=1-10 uM) | COc1nc(NC[C@]2(c3ncccc3F)C[C@H](F)C2)ncc1-c1ccccc1 [{[3-fluoro-1-(3-fluoro(2-pyridyl))cyclobutyl]methyl}(4-methoxy-5-phenylpyrimidin-2-yl)amine]
D (D=>20 uM) | CC(C)(C)Nc1ncc(-c2cccc(C(N)=O)c2)cn1 [3-{2-[(tert-butyl)amino]pyrimidin-5-yl} benzamide]
A (A=<1 uM) | NC(=O)c1ccc(O)c(-c2cnc(NC[C@]3(c4ncccc4F)C[C@H](F)C3)nc2)c1 [3-[2-({[3-fluoro-1-(3-fluoro(2-pyridyl))cyclobutyl]methyl}amino)pyrimidin-5-yl]-4-hydroxybenzamide]
C (C=10-20 uM) | CC(C)(Nc1nccc(-c2nccs2)n1)c1cccc(OC(F)F)n1 [{1-[6-(difluoromethoxyl)(2-pyridyl)]-isopropyl)(4-(1,3-thiazol-2-yl)]pyrimidin-2-yl)amine]
C (C=10-20 uM) | Nc1nccc(-c2cnc(NC[C@]3(c4ncccc4F)C[C@H](F)C3)nc2)n1 [[5-(2-aminopyrimidin-4-yl)pyrimidin-2-yl]{[3-fluoro-1-(3-fluoro(2-pyridyl))cyclobutyl]methyl)amine]
